The values that follow come from PubChem BioAssay (NCI).

Test systems include SN12C renal; MALME-3M melanoma; A549 NSCLC; NCI-H226 lung; U251 CNS; NCI-H522 lung; K-562 leukemia; ACHN renal; 786-0 renal; MCF7 breast.
What all share (test): DTP human tumour cell line panel, 48 h

Structures are written as SMILES.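 These data come from cells grown in 96-well plates and exposed to compound for 48 hours at five concentrations. GI50 is the concentration that inhibits growth by half. The concentration for full growth arrest is given as TGI.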

As usually defined, the TGI is the concentration at which net growth stops. With `CCCCCCCCCCCCCCCc1ccc(OCC(O)CO)cc1` (stereo unspecified), the TGI with SN12C renal is 33.2 µM; with MALME-3M melanoma it was 46.8 µM; in the experiment on A549 NSCLC, 50.1 µM; in the experiment with NCI-H226 lung it was 58.5 µM; in the experiment on U251 CNS it was 55.9 µM; in the experiment on NCI-H522 lung, 35.4 µM. In addition, the TGI with K-562 leukemia and with ACHN renal was above 100 µM each time.
On to `N#CC(c1nc2ccccc2s1)c1ncnc(Cl)c1[N+](=O)[O-]` (stereo unspecified), for which the TGI with SN12C renal was 41.9 µM; in the experiment with MALME-3M melanoma it was 41.8 µM; in the experiment with A549 NSCLC it was above 100 µM; with NCI-H226 lung it was 83.3 µM; in the experiment on U251 CNS, 95.7 µM; in the experiment with NCI-H522 lung, 33.5 µM. In addition, the TGI in the experiment with 786-0 renal was 42.7 µM; with ACHN renal it was above 100 µM.
On to `O=C(C[C@H](NC(=O)OCc1ccccc1)C(=O)NC1Cc2ccccc2OC1=O)OCc1ccccc1` (stereo partly specified), for which the TGI with SN12C renal is above 100 µM; in the experiment on MALME-3M melanoma, above 100 µM; in the experiment on NCI-H226 lung it was above 100 µM; in the experiment on U251 CNS, above 100 µM; with MCF7 breast it was 80.6 µM; in the experiment with NCI-H522 lung it was above 100 µM. The same compound registered a TGI with K-562 leukemia of 49.2 µM.
Regarding `Cc1cccc2cc3c(ccc4ccccc43)c[n+]12`, the TGI is 20.3 µM in the experiment on SN12C renal; 5.22 µM in the experiment with MALME-3M melanoma; above 100 µM with A549 NSCLC; 40.6 µM with U251 CNS; above 100 µM in the experiment on MCF7 breast; 38.2 µM with NCI-H522 lung. For the same compound, the TGI in the experiment with 786-0 renal, with K-562 leukemia and with ACHN renal was above 100 µM throughout.
Consider `CN(C)c1nc(N(C)C)nc(N(C)CN(C)c2ccc(Cl)cc2)n1`, for which the concentration for total growth inhibition (TGI) in the experiment with SN12C renal, in the experiment on MALME-3M melanoma, in the experiment with A549 NSCLC, in the experiment with NCI-H226 lung, with U251 CNS and in the experiment with NCI-H522 lung was above 100 µM each time. Further, the TGI in the experiment on K-562 leukemia and in the experiment on ACHN renal was above 100 µM in each case.
`O=c1cc(-c2ccc(O)cc2)n(C2CC2)c2ccccc12`: the TGI in the experiment with SN12C renal was determined as 32.3 µM; in the experiment with A549 NSCLC, 18.5 µM; in the experiment with NCI-H226 lung, 16.4 µM; in the experiment with U251 CNS it was 21.6 µM; in the experiment with MCF7 breast, 35.5 µM; in the experiment with NCI-H522 lung, 9.69 µM. Further, the results for the TGI with 786-0 renal, in the experiment on K-562 leukemia and in the experiment on ACHN renal were 17.1 µM, above 100 µM and 5.99 µM, respectively.
Consider `O=C(O)c1cc(=O)[nH]c(SCc2ccccc2)n1`, for which the TGI in the experiment on SN12C renal, with MALME-3M melanoma, in the experiment with A549 NSCLC, with NCI-H226 lung, in the experiment with U251 CNS and with NCI-H522 lung was above 100 µM each time. Moreover, the TGI in the experiment on 786-0 renal, in the experiment with K-562 leukemia and with ACHN renal was above 100 µM each time.
Regarding `Cc1nc2c(n1C)C(=O)c1nc(CBr)[nH]c(=O)c1C2=O`, the TGI in the experiment with SN12C renal, with A549 NSCLC, with U251 CNS, with NCI-H522 lung, in the experiment on K-562 leukemia and in the experiment on ACHN renal was above 100 µM each time.
For the compound `C=CCc1cc(-c2cc(CC=C)c(O)c(CNC)c2)cc(CNC)c1O`, the TGI was 31.3 µM with SN12C renal; 33.6 µM with MALME-3M melanoma; 33 µM in the experiment on A549 NSCLC; 31 µM with NCI-H226 lung; 28.4 µM with U251 CNS; 28.3 µM in the experiment with NCI-H522 lung. Also, the TGI with 786-0 renal turned out to be 29 µM; with K-562 leukemia it was 27.3 µM; with ACHN renal, 31.7 µM.
`CSc1nc(NC2OCC(OC(C)=O)C(OC(C)=O)C2OC(C)=O)c(N=C(C)C(C)=O)c(=O)[nH]1` (stereo unspecified): the TGI with SN12C renal, in the experiment on MALME-3M melanoma, in the experiment on A549 NSCLC, in the experiment on U251 CNS, in the experiment with K-562 leukemia and with ACHN renal was above 100 µM in each case.
Broadly, the GI50 is the concentration that inhibits growth by half. With `COc1ccc(C2CC(c3cccc(Nc4ccncc4)c3)=NN2c2ccc(Cl)cc2)cc1` (stereo unspecified), the GI50 in the experiment with SN12C renal was 1.6 µM; with MALME-3M melanoma it was 1.59 µM; with A549 NSCLC, 1.87 µM; with NCI-H226 lung it was 2.27 µM; with MCF7 breast it was 1.83 µM; in the experiment on NCI-H522 lung, 1.79 µM. The GI50 in the experiment with K-562 leukemia is 1.6 µM; in the experiment on ACHN renal it was 1.56 µM. Besides, the TGI came out at 3.07 µM with SN12C renal; 3.15 µM in the experiment with MALME-3M melanoma; 3.65 µM in the experiment with A549 NSCLC; 7.73 µM in the experiment on NCI-H226 lung; 3.63 µM in the experiment with MCF7 breast; 3.71 µM with NCI-H522 lung. The values for the TGI with K-562 leukemia and with ACHN renal were 4.37 µM and 2.9 µM, respectively.
`N#Cc1c(NC(=S)Nc2ccc(Cl)cc2)sc2c1CCCC2`: the TGI in the experiment with SN12C renal was 50.4 µM; with MALME-3M melanoma, above 100 µM; with NCI-H226 lung, above 100 µM; in the experiment on U251 CNS, above 100 µM; in the experiment with MCF7 breast, above 100 µM; in the experiment on NCI-H522 lung, above 100 µM. For the same compound, the TGI with K-562 leukemia and with ACHN renal was above 100 µM each time.
In the case of `CC(C)(C)OC(=O)NCC(=O)NC1c2ccsc2/C(=N/O)[C@H]1O` (stereo partly specified), the total growth inhibition concentration (TGI) in the experiment on SN12C renal, with MALME-3M melanoma, in the experiment with A549 NSCLC, in the experiment on NCI-H226 lung, with U251 CNS and in the experiment on MCF7 breast was above 100 µM each time. Further, in the experiment on K-562 leukemia, the TGI was above 100 µM.
On to `N#Cc1c2c(c(Nc3cccc(C(F)(F)F)c3)n3c1nc1ccccc13)CCC2`, for which the TGI in the experiment on SN12C renal, in the experiment on MALME-3M melanoma, in the experiment with NCI-H226 lung, in the experiment with U251 CNS, in the experiment on NCI-H522 lung and in the experiment with 786-0 renal was above 100 µM in each case. The compound further displayed a TGI with ACHN renal above 100 µM.
Turning to `CCN1C=C/C(=C\C=C/c2cc[n+](CC)c3ccccc23)c2ccccc21`, the TGI in the experiment on SN12C renal worked out at 12.3 µM; in the experiment on MALME-3M melanoma it was 30.5 µM; in the experiment with A549 NSCLC, 21.2 µM; in the experiment on NCI-H226 lung it was 16 µM; in the experiment on U251 CNS it was 13 µM; in the experiment with MCF7 breast, 20 µM. The TGI in the experiment with NCI-H522 lung was found to be 23.1 µM; with 786-0 renal, 18.2 µM; in the experiment on ACHN renal, 33.8 µM.
